This is an account of results in PubChem BioAssay AID720589 (Broad Institute, 2013).

The test system of this assay is HepG2 viability, ATP luminescence (CellTiter-Glo), 72 h. The experiment in a line: ATP-based viability loss in HepG2 cells – cell-based, CellTiter-Glo luminescence, cherry-pick, set 3, cytotoxicity control, dose response (AID 720589). For orientation: In ATP-based viability assays light output follows the ATP content of the culture.
`COc1ccc(CC(N)c2csc(NC(=O)Nc3cccc(C(F)(F)F)c3)n2)cc1` (stereo not given): the AC35 was 6.15 µM.
Regarding `CC12CCC3C(CCC4(O)CC(O)CCC34C=NO)C1(O)CCC2C1=COC(=O)C1` (stereo not given), the AC35 was 0.155 µM.
Turning to `O=C(N/N=C/c1cccs1)c1n[nH]c2c1CCCC2`, the AC35 was 17.7 µM.
On to `CC(=O)OC1CC2(O)C3CCC4CC(O)CCC4(C)C3CCC2(C)C1C1=CC(=O)OC1` (stereo not given), for which the AC35 was 0.602 µM.
Take `N#CC(=C1C=CC(=NO)C(Cl)=C1)c1ccccc1`: the AC35 is 2.66 µM.
With `COC1C(C)OC(OC2CC(C)(O)Cc3cc4c(c(O)c32)C(=O)c2c(O)cc3c(c2C4=O)OC2OC3(C)C(O)C(N(C)C)C2O)C(OC)C1(C)OC` (stereo not given), the AC35 was 0.133 µM.
Consider `O=C(Nc1ccc(F)cc1)N1CCCCN2[C@@H](CO)[C@H](c3ccc(C4=CCCCC4)cc3)[C@@H]2C1`, for which the AC35 was 8.45 µM.
Turning to `C(=N\Nc1nc2ccccc2s1)/c1ccccn1`, the AC35 is 4.83 µM.
As to `COc1cc(/C=N/NC(=O)c2csc3c2CCCC3)cc(OC)c1O`, the AC35 was 20 µM.
Take `C[C@@H]1CN([C@@H](C)CO)C(=O)c2cc(NC(=O)c3ccccc3)ccc2O[C@@H](C)CCCCO[C@H]1CN(C)C(=O)Nc1cccc2ccccc12`: the AC35 was 0.927 µM.
For `O=C1/C(=C\c2ccccc2)CN(C(=O)CCN2CCCCC2)C/C1=C/c1ccccc1`, the AC35 was 3.95 µM.
In the case of `C[C@@H]1CN([C@H](C)CO)C(=O)c2cccc(N(C)C)c2O[C@@H]1CN(C)Cc1ccc(C(=O)Nc2ccccc2N)cc1`, the AC35 is 3.05 µM.
The same measure for `COc1ccc(-c2cc(CNc3nc(NC(C)C)nc4cc(-c5ccccc5)sc34)on2)cc1`: 11 µM; for `CN(C)CC1CCC/C(=C\c2ccc(OC(=O)c3ccc(Cl)cc3)cc2)C1=O` (stereo not given): 9.84 µM; for `O=C(N/N=C/c1cnc(N2CCCCC2)s1)c1ccc(C(F)(F)F)cc1`: 14.1 µM.
As for `COc1ccccc1NC(=O)N1CCCCN2[C@H](CO)[C@H](c3ccc(-c4cccc(C)c4)cc3)[C@H]2C1`, the AC35 is 12.5 µM.
As for `Cc1ccc(C)c(S(=O)(=O)N2CCN(c3ncnc4sccc34)CC2)c1`, the AC35 was 4.76 µM.
Consider `O=C(NC1CCCC1)N1CCCCN2[C@@H](CO)[C@@H](c3ccc(/C=C/c4ccccc4)cc3)[C@@H]2C1`, for which the AC35 was 9.99 µM.
With `CCCCCCCN(c1ccccc1)[C@@H]1C[C@H]2CCCC(=O)N3CC[C@@H](C1)[C@@H]23` the figure was 17.3 µM; with `O=C1Nc2cc(C(=O)NCCN3CCCCCC3)ccc2S/C1=C\c1ccccc1`, 10.7 µM; with `C[C@@H]1CN([C@H](C)CO)C(=O)Cc2cc(NC(=O)CCCCCC(=O)Nc3ccccc3N)ccc2O[C@@H]1CN(C)CC1CCCCC1`, 1.93 µM.
For `C[C@@H]1CN([C@@H](C)CO)S(=O)(=O)c2ccc(C#CC(C)(C)O)cc2O[C@H]1CN(C)Cc1ccc(-c2ccccc2)cc1`, the AC35 was 6.19 µM.
Regarding `COc1ccc(/C=C/C(=O)c2ccc(C(=O)/C=C/c3ccc(OC)c(OC)c3)cc2)cc1OC`, the AC35 is 15.1 µM.
In the case of `C[C@@H]1CN([C@@H](C)CO)C(=O)Cc2cc(NS(=O)(=O)c3cccs3)ccc2O[C@H]1CN(C)Cc1ccc(Cl)c(Cl)c1`, the AC35 was 0.901 µM.
With `C[C@H](CO)N1C[C@H](C)[C@H](CN(C)CC2CCCCC2)Oc2ccc(NC(=O)Nc3cccc4ccccc34)cc2C1=O`, the AC35 was 14.9 µM.
Regarding `O=C1NC(=O)N(Cc2ccccc2)C(=O)/C1=C\C=C\c1ccco1`, the AC35 was 5.18 µM.
Regarding `COc1cc2c(cc1OC)C(C)N(C(=O)c1cc(Cl)nc(Cl)c1)CC2` (stereo not given), the AC35 was 12.3 µM.
In the case of `Nc1cc2c(cc1Br)[nH]c(=O)c1ccccc12`, the AC35 is 19.2 µM.
Take `CCCCc1c(Cc2ccccc2)ncn1CCc1ccccc1OC`: the AC35 was 13.5 µM.
As for `C[C@]12CCC3C(CCC4=CC(O)CC[C@@]43/C=N/O)C1(O)CCC2C1=CC(=O)OC1` (stereo not given in full), the AC35 was 1.57 µM.
On to `CN1C(=O)c2cc(NC(=O)c3ccc(C(F)(F)F)cc3)ccc2OC[C@@H]2O[C@@H](CC(=O)NC3Cc4ccccc4C3)CC[C@H]21`, for which the AC35 is 7.45 µM.
Consider `C[C@@H]1O[C@@H](O[C@H]2C[C@@H](O)[C@]3(CO)[C@@H]4C(CC[C@]3(O)C2)[C@@]2(O)CC[C@H](C3COC(=O)C3)[C@@]2(C)C[C@H]4O)[C@H](O)[C@H](O)[C@H]1O` (stereo not given in full), for which the AC35 is 1.47 µM.
With `Nc1nc(=S)c2ncn([C@@H]3O[C@H](CO)[C@@H](O)[C@H]3O)c2[nH]1`, the AC35 is 2.56 µM.
For the compound `NC(Cc1ccc(C(F)(F)F)cc1)c1csc(NC(=O)Nc2ccccc2Cc2ccccc2)n1` (stereo not given), the AC35 is 12.4 µM.
Consider `C[C@H](CO)N1C[C@H](C)[C@@H](CN(C)Cc2ccc(Oc3ccccc3)cc2)Oc2ccc(NS(=O)(=O)c3ccc(Cl)cc3)cc2CC1=O`, for which the AC35 was 10.3 µM.
With `Cc1cc(C)c2sc(NNC(=O)c3ccc(S(=O)(=O)N4CCc5ccccc5C4)cc3)nc2c1` the figure was 3.76 µM.
Turning to `COc1ccc(NC(=S)N=Nc2c(O)[nH]c3ccccc23)cc1`, the AC35 is 15.8 µM.
`Cc1cc(-c2nc3ccccc3s2)ccc1N`: the AC35 is 0.0502 µM.
`Cc1ccc(S(=O)(=O)Nc2ccc3c(c2)C(=O)N([C@H](C)CO)C[C@@H](C)[C@@H](CN(C)Cc2ccc(C(=O)Nc4ccccc4N)cc2)O3)cc1`: the AC35 was 1.28 µM.
As for `COc1ccc(Nc2ncnc3ccc(Br)cc23)c(OC)c1`, the AC35 was 15.6 µM.
On to `O=C(NC[C@@H]1N[C@@H](CO)[C@H]1c1ccc(C2=CCCCC2)cc1)c1cccc(F)c1`, for which the AC35 is 7.71 µM.
For the compound `CCCCC[C@H](C)N1C[C@H](COCc2ccccc2)Oc2cc(N3CC[C@@H](N(C)C)C3)ccc2S1(=O)=O`, the AC35 is 6.56 µM.
As to `COc1cc2c(OC(C)=O)c3c(c(-c4ccc5c(c4)OCO5)c2cc1OC)C(=O)OC3`, the AC35 was 0.465 µM.
The same measure for `COc1cccc(O)c1CN1CCC(C(=O)Nc2ccc(-c3cccc(C)c3)cc2)CC1`: 10.4 µM.
Turning to `C=CCOC(=O)c1sc(NC(=O)c2ccc(OC)cc2)nc1C`, the AC35 was 6.33 µM.
Consider `Cc1ccc(OCCNC(=O)c2cccc(S(=O)(=O)NCc3ccccc3)c2)cc1`, for which the AC35 was 19.3 µM.
On to `COC(=O)c1ccccc1-c1c2ccc(=N)cc-2oc2cc(N)ccc12`, for which the AC35 is 10.2 µM.
Turning to `Cc1cccc(CN2C(=O)/C(=C\c3ccc(C(=O)NCCCN4CCN(C)CC4)cc3)Oc3ccccc32)c1`, the AC35 was 11.2 µM.
`C[C@H](CO)N1C[C@H](C)[C@H](CN(C)Cc2ccc(C(=O)Nc3ccccc3N)cc2)Oc2ccc(N(C)C)cc2CC1=O`: the AC35 was 0.19 µM.
Turning to `OC[C@H]1O[C@@H](n2cnc3c(NCc4ccco4)ncnc32)[C@H](O)[C@@H]1O`, the AC35 was 12.1 µM.
As for `COC(=O)C1=C(C)N(Cc2cccc(C(F)(F)F)c2)C(=NCc2ccc(OC)cc2)NC1c1cccc(F)c1` (stereo not given), the AC35 is 7.37 µM.
With `COc1ccc(S(=O)(=O)Nc2ccc3c(c2)C(=O)N([C@H](C)CO)C[C@@H](C)[C@@H](CN(C)Cc2ccc(C(=O)Nc4ccccc4N)cc2)O3)cc1` the figure was 10.8 µM.
The same measure for `C[C@]12CC[C@H](O)C[C@H]1CC[C@@H]1[C@@H]2C[C@@H](O)[C@]2(C)[C@@H](C3=CC(=O)OC3)CC[C@]12O`: 0.373 µM; for `Nc1ccc(-c2cc3ccccc3oc2=O)cc1`: 2.42 µM; for `C[C@H](CO)N1C[C@H](C)[C@H](CN(C)Cc2ccc(C(=O)Nc3ccccc3N)cc2)Oc2c(cccc2N(C)C)C1=O`: 0.615 µM.
For the compound `Cc1c(CCOC(=O)CC23CC4CC(CC(C)(C4)C2)C3)sc[n+]1CC(=O)c1ccccc1`, the AC35 is 18.4 µM.
Regarding `COc1ccc(Cn2cc3c(-c4ccc(F)cc4)nnc-3c3cc(OC)c(OC)cc32)cc1`, the AC35 is 10.6 µM.
For the compound `CCOC(=O)[C@]12Cc3ccc(C)cc3[C@H]1N(C1CCCCC1)C(=O)c1ccccc12`, the AC35 was 3.95 µM.
`C[C@@H]1O[C@@H](O[C@@H]2C=C3CCC4C(CC[C@]5(C)[C@@H](c6ccc(=O)oc6)CC[C@]45O)[C@@]3(C)CC2)[C@H](O)[C@H](O)[C@H]1O` (stereo not given in full): the AC35 was 0.068 µM.
With `CC(C)(C)[S@](=O)N1Cc2cc(C(=O)NCC(F)(F)F)nc(-c3cccc(-c4cccc(F)c4)c3)c2[C@@H]1CCO`, the AC35 is 0.139 µM.
Turning to `CC1(C(=O)NCc2ccco2)Cc2c(-c3cccc(C(N)=O)c3)ccnc2O1` (stereo not given), the AC35 is 14.5 µM.
As for `CCCCCCCCCCCCCCCCn1cc[n+](C)c1`, the AC35 is 4.54 µM.
Regarding `Cc1cc2sc3ccc(C#CC4(O)CCCCC4)cc3c(=O)c2cc1C`, the AC35 was 21.6 µM.
On to `O=C(NC(c1ccc(F)cc1)c1ccc2ccccc2n1)C1CCN(Cc2cccc(C(F)(F)F)c2)CC1` (stereo not given), for which the AC35 is 20 µM.
As to `Cc1cc(-c2nc3cc(F)ccc3s2)ccc1N`, the AC35 was 0.0938 µM.
Regarding `O=C1NC(=O)N(Cc2ccco2)C(=O)/C1=C/C=C/c1ccco1`, the AC35 was 10.3 µM.
For the compound `CCN1/C(=C/C=C/c2oc3ccc(-c4ccccc4)cc3[n+]2CC)Oc2ccc(-c3ccccc3)cc21`, the AC35 is 2.37 µM.
As to `COC(=O)C1=C(C)N(Cc2ccccc2C(F)(F)F)C(=NCc2ccc(OC)cc2)NC1c1ccc(C(F)(F)F)cc1` (stereo not given), the AC35 was 11.1 µM.
For `Cc1ccc(S(=O)(=O)Nc2ccc3c(c2)C(=O)N([C@@H](C)CO)C[C@H](C)[C@@H](CN(C)Cc2ccc(C(F)(F)F)cc2)OCCCC[C@@H](C)O3)cc1`, the AC35 was 13.2 µM.
The same measure for `C[C@H]1O[C@@H](O[C@H]2[C@@H](O)C[C@H](O[C@H]3[C@@H](O)C[C@H](O[C@H]4CC[C@@]5(C)[C@H](CC[C@@H]6[C@@H]5C[C@@H](O)[C@]5(C)[C@@H](C7=CC(=O)OC7)CC[C@]65O)C4)O[C@@H]3C)O[C@@H]2C)C[C@H](O)[C@@H]1O`: 0.155 µM; for `C[C@@H]1CN([C@@H](C)CO)C(=O)c2cccc(NS(=O)(=O)c3ccc(F)cc3)c2O[C@@H]1CN(C)Cc1ccc(C(=O)Nc2ccccc2N)cc1`: 1.45 µM; for `C[C@@H]1CN([C@H](C)CO)C(=O)c2cc(NC(=O)Nc3ccccc3)ccc2O[C@@H]1CN(C)Cc1ccc(C(=O)Nc2ccccc2N)cc1`: 8.38 µM.
With `C[C@H](CO)N1C[C@H](C)[C@H](CN(C)Cc2ccc(C(=O)Nc3ccccc3N)cc2)Oc2ccc(N(C)C)cc2C1=O` the figure was 18.2 µM; with `CC(=O)OC1CC(OC2C(O)CC(OC3C(O)CC(OC4CCC5(C)C(CCC6C5CC(O)C5(C)C(C7=CC(=O)OC7)CCC65O)C4)OC3C)OC2C)OC(C)C1OC1OC(CO)C(O)C(O)C1O` (stereo not given), 0.285 µM.
The same measure for `CCc1nc(N)nc(N)c1-c1ccc(Cl)c(N=[N+]=[N-])c1`: 5 µM.
